This is an account of results in article PMC7368294 (Proceedings of the National Academy of Sciences of the …, 2020).

A word on the EC50: it is the concentration giving half of the maximal effect.

In the assay the target is T1, Amα1/Amα8/Amβ1 nAChR (Apis mellifera, UniProt A0A7M7MMZ9+A0A8U0WQ70+A0A8U0WQC0).
T1 sequence (A0A7M7MMZ9 44-627): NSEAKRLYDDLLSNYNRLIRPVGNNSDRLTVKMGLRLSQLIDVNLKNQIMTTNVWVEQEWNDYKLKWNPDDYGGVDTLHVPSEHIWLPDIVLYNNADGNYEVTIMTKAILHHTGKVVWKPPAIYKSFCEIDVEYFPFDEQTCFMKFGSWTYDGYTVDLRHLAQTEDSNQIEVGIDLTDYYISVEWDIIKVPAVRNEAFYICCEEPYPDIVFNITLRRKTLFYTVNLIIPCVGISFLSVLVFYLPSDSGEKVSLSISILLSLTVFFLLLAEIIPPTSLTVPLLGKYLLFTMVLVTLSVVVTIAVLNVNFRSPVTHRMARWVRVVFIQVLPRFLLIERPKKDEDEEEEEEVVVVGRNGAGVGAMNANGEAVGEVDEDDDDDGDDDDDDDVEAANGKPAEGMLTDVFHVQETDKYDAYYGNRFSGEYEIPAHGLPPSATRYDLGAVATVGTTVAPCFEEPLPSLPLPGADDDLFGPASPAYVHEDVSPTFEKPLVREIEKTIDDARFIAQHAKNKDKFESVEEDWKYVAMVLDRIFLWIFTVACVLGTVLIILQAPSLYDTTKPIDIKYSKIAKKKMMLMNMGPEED
T1 sequence (A0A8U0WQ70 25-537): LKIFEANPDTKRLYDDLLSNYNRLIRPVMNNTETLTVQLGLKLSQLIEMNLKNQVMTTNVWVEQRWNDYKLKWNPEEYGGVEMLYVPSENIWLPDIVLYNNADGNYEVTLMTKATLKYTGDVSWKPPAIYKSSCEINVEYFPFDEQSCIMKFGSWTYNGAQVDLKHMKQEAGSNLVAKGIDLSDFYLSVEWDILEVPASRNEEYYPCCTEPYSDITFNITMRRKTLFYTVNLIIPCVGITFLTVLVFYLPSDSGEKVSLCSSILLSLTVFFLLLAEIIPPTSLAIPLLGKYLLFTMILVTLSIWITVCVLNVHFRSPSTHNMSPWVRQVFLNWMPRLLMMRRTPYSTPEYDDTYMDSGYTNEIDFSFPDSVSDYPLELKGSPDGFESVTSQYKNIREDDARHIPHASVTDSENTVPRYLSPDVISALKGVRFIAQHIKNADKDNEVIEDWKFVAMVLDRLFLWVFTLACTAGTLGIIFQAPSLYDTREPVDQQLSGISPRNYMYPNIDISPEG
T1 sequence (A0A8U0WQC0 25-520): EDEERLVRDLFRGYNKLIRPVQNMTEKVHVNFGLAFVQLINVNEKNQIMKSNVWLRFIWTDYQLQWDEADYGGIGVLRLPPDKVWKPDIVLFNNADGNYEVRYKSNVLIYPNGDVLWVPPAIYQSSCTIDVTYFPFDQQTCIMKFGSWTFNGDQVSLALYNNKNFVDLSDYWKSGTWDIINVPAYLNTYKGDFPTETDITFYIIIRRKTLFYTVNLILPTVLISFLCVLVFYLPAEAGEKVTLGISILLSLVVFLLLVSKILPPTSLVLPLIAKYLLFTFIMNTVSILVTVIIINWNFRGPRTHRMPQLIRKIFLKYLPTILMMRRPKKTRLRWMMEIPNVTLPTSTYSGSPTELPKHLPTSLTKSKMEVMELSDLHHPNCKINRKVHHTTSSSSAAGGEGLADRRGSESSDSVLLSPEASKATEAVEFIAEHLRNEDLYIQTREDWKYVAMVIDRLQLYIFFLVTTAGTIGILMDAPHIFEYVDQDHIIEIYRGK
Briefly: two-electrode voltage clamp of Xenopus oocytes, agonist concentration-response. Format: cell-based. On the technique in general: In two-electrode clamp one electrode senses voltage and the other passes current.
For `CN/C(=N\[N+](=O)[O-])NCc1cnc(Cl)s1` [clothianidin], the EC50 was 11 nM.
On to `O=[N+]([O-])NC1=NCCN1Cc1ccc(Cl)nc1` [imidacloprid], for which the response was half-maximal at 23.4 nM (EC50).
Compound `N#C/N=C1\SCCN1Cc1ccc(Cl)nc1` [thiacloprid] showed an EC50 of 11.5 nM.
